{
  "source": "paper PMC3977574",
  "about": "“Structural Basis of Mos1 Transposase Inhibition by the Anti-retroviral Drug Raltegravir” (ACS Chemical Biology, 2014)",
  "target": "T1, Mos1 transposase (Drosophila mauritiana, UniProt Q7JQ07, T216A)",
  "T1 construct": "gene mariner\\T; Mos1 transposase catalytic domain (crystal); Mos1 transposase and paired-end complex (thermal denaturation and activity assays)",
  "T1 sequence (Q7JQ07 whole entry T216A, the tested form may be a part)": "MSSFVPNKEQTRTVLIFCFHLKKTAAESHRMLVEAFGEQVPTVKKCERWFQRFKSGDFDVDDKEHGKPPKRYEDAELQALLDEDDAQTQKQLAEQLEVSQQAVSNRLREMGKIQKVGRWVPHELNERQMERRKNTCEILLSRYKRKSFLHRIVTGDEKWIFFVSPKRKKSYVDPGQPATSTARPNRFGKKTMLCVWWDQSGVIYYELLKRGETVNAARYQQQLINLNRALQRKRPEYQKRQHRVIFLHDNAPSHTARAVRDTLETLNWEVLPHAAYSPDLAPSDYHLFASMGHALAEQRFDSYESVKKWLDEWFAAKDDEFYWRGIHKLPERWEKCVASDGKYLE",
  "experiment": "X-ray co-crystal structures at […] Å (soak); thermal denaturation shift; strand transfer assay IC50 […]; plasmid cleavage assay IC50 […]",
  "type": "biochemical",
  "data": [
    {"compound": "Cc1nnc(C(=O)NC(C)(C)c2nc(C(=O)NCc3ccc(F)cc3)c(O)c(=O)n2C)o1", "note": "[Raltegravir]", "values": [
      {"measurement": "IC50", "result": "~2000", "unit": "nM"}
    ]}
  ]
}
